Measured values published in ChEMBL document CHEMBL2169865, “Selective class I phosphoinositide 3-kinase inhibitors: optimization of a series of pyridyltriazines leading to the identification of a clinical candidate, AMG 511” (J Med Chem, 2012).

tested on: Hepatocyte; assay: not given; conditions: rat, hepatocytes, 4 h, 3 µM; call rule not given here

Structure (SMILES) | Drug metabolism
COc1ncc(Nc2ncc(CN3CCN(S(C)(=O)=O)CC3)cc2-c2nc(C)nc(N)n2)cc1F | Active

tested on: Hepatocyte; assay: not given; conditions: rat, hepatocytes, 4 h, 3 µM; remark: another data set of the same source

Structure (SMILES) | Drug metabolism
COc1ncc(Nc2ncc(CN3CCN(S(C)(=O)=O)CC3)cc2-c2nc(C)nc(N)n2)cc1F | Not Active

tested on: not listed separately; assay: in vivo; conditions: Sprague-Dawley, rat, plasma, po, 2 mg/kg

Structure (SMILES) | AUC [µM·h]
COc1ncc(Nc2ncc(CN3CCN(S(C)(=O)=O)C[C@@H]3C)cc2-c2nc(C)nc(N)n2)cc1F | 2.3
COc1ncc(Nc2ncc([C@@H](C)N3CCN(S(C)(=O)=O)C[C@@H]3C)cc2-c2nc(C)nc(N)n2)cc1F | 1.4
COc1ncc(Nc2ncc(C(C)(C)N3CCN(S(C)(=O)=O)CC3)cc2-c2nc(C)nc(N)n2)cc1F | 1.3
COc1ncc(Nc2ncc(CN3CCN(S(C)(=O)=O)CC3)cc2-c2nc(C)nc(N)n2)cc1F | 0.95

tested on: not listed separately; assay: in vivo; conditions: Sprague-Dawley, rat, po, 2 mg/kg

Structure (SMILES) | bioavailability [%]
COc1ncc(Nc2ncc(CN3CCN(S(C)(=O)=O)C[C@@H]3C)cc2-c2nc(C)nc(N)n2)cc1F | 60
COc1ncc(Nc2ncc([C@@H](C)N3CCN(S(C)(=O)=O)C[C@@H]3C)cc2-c2nc(C)nc(N)n2)cc1F | 49
COc1ncc(Nc2ncc(C(C)(C)N3CCN(S(C)(=O)=O)CC3)cc2-c2nc(C)nc(N)n2)cc1F | 24
COc1ncc(Nc2ncc(CN3CCN(S(C)(=O)=O)CC3)cc2-c2nc(C)nc(N)n2)cc1F | 45

tested on: not listed separately; assay: in vivo; conditions: Sprague-Dawley, rat, iv, 1 mg/kg

Structure (SMILES) | MRT [h]
COc1ncc(Nc2ncc(CN3CCN(S(C)(=O)=O)C[C@@H]3C)cc2-c2nc(C)nc(N)n2)cc1F | 3.2
COc1ncc(Nc2ncc([C@@H](C)N3CCN(S(C)(=O)=O)C[C@@H]3C)cc2-c2nc(C)nc(N)n2)cc1F | 3.1
COc1ncc(Nc2ncc(C(C)(C)N3CCN(S(C)(=O)=O)CC3)cc2-c2nc(C)nc(N)n2)cc1F | 4.9
COc1ncc(Nc2ncc(CN3CCN(S(C)(=O)=O)CC3)cc2-c2nc(C)nc(N)n2)cc1F | 1.7

tested on: not listed separately; assay: in vivo; conditions: Sprague-Dawley, rat, iv, 1 mg/kg; remark: another data set of the same source

Structure (SMILES) | Vd [L/kg]
COc1ncc(Nc2ncc(CN3CCN(S(C)(=O)=O)C[C@@H]3C)cc2-c2nc(C)nc(N)n2)cc1F | 3.2
COc1ncc(Nc2ncc([C@@H](C)N3CCN(S(C)(=O)=O)C[C@@H]3C)cc2-c2nc(C)nc(N)n2)cc1F | 4
COc1ncc(Nc2ncc(C(C)(C)N3CCN(S(C)(=O)=O)CC3)cc2-c2nc(C)nc(N)n2)cc1F | 3.5
COc1ncc(Nc2ncc(CN3CCN(S(C)(=O)=O)CC3)cc2-c2nc(C)nc(N)n2)cc1F | 3.3

tested on: not listed separately; assay: in vivo; conditions: Sprague-Dawley, rat, iv, 1 mg/kg; remark: another data set of the same source

Structure (SMILES) | clearance [mL/min/kg]
COc1ncc(Nc2ncc(CN3CCN(S(C)(=O)=O)C[C@@H]3C)cc2-c2nc(C)nc(N)n2)cc1F | 16.7
COc1ncc(Nc2ncc([C@@H](C)N3CCN(S(C)(=O)=O)C[C@@H]3C)cc2-c2nc(C)nc(N)n2)cc1F | 21.7
COc1ncc(Nc2ncc(C(C)(C)N3CCN(S(C)(=O)=O)CC3)cc2-c2nc(C)nc(N)n2)cc1F | 11.7
COc1ncc(Nc2ncc(CN3CCN(S(C)(=O)=O)CC3)cc2-c2nc(C)nc(N)n2)cc1F | 33.3

tested on: not listed separately; assay: in vitro; conditions: human, liver microsomes

Structure (SMILES) | microsomal CLint at 0.5 h, 1 µM [µL/min/mg]
COc1ncc(Nc2ncc(CN3CCN(S(C)(=O)=O)C[C@H]3C)cc2-c2nc(C)nc(N)n2)cc1F | 29
COc1ncc(Nc2ncc(CN3CCN(S(C)(=O)=O)C[C@@H]3C)cc2-c2nc(C)nc(N)n2)cc1F | 41
COc1ncc(Nc2ncc([C@@H](N3CCN(S(C)(=O)=O)CC3)C(F)(F)F)cc2-c2nc(C)nc(N)n2)cc1F | 23
COc1ncc(Nc2ncc([C@H](N3CCN(S(C)(=O)=O)CC3)C(F)(F)F)cc2-c2nc(C)nc(N)n2)cc1F | 25
COc1ncc(Nc2ncc([C@@H](C)N3CCN(S(C)(=O)=O)C[C@H]3C)cc2-c2nc(C)nc(N)n2)cc1F | 64
COc1ncc(Nc2ncc([C@H](C)N3CCN(S(C)(=O)=O)C[C@H]3C)cc2-c2nc(C)nc(N)n2)cc1F | 54
COc1ncc(Nc2ncc([C@@H](C)N3CCN(S(C)(=O)=O)C[C@@H]3C)cc2-c2nc(C)nc(N)n2)cc1F | 67
COc1ncc(Nc2ncc([C@H](C)N3CCN(S(C)(=O)=O)C[C@@H]3C)cc2-c2nc(C)nc(N)n2)cc1F | 80
COc1ncc(Nc2ncc(C(C)(C)N3CCN(S(C)(=O)=O)CC3)cc2-c2nc(C)nc(N)n2)cc1F | 81

Next, values leading:

microsomal CLint at 0.5 h, 1 µM [µL/min/mg] | Structure (SMILES)
< 14 | Cc1nc(N)nc(-c2cc(CN3CCN(S(C)(=O)=O)CC3)cnc2Nc2ccc(Cl)nc2)n1
< 14 | Cc1ccc(Nc2ncc(CN3CCN(S(C)(=O)=O)CC3)cc2-c2nc(C)nc(N)n2)cn1
< 14 | Cc1nc(N)nc(-c2cc(CN3CCN(S(C)(=O)=O)CC3)cnc2Nc2ccc(C(F)(F)F)nc2)n1
14 | COc1ncc(Nc2ncc(CN3CCN(S(C)(=O)=O)CC3)cc2-c2nc(C)nc(N)n2)cn1
< 14 | COc1ncc(Nc2ncc(CN3CCN(S(C)(=O)=O)CC3)cc2-c2nc(C)nc(N)n2)cc1F
< 14 | Cc1nc(N)nc(-c2cc(CN3CCN(S(C)(=O)=O)CC3)cnc2Nc2cncc(F)c2)n1
14 | COc1cncc(Nc2ncc(CN3CCN(S(C)(=O)=O)CC3)cc2-c2nc(C)nc(N)n2)c1

tested on: not listed separately; assay: in vitro; conditions: rat, liver microsomes

Structure (SMILES) | microsomal CLint at 0.5 h, 1 µM [µL/min/mg]
COc1ncc(Nc2ncc(CN3CCN(S(C)(=O)=O)C[C@H]3C)cc2-c2nc(C)nc(N)n2)cc1F | 120
COc1ncc(Nc2ncc(CN3CCN(S(C)(=O)=O)C[C@@H]3C)cc2-c2nc(C)nc(N)n2)cc1F | 54
COc1ncc(Nc2ncc([C@@H](N3CCN(S(C)(=O)=O)CC3)C(F)(F)F)cc2-c2nc(C)nc(N)n2)cc1F | 17
COc1ncc(Nc2ncc([C@H](N3CCN(S(C)(=O)=O)CC3)C(F)(F)F)cc2-c2nc(C)nc(N)n2)cc1F | 22
COc1ncc(Nc2ncc([C@@H](C)N3CCN(S(C)(=O)=O)C[C@H]3C)cc2-c2nc(C)nc(N)n2)cc1F | 113
COc1ncc(Nc2ncc([C@H](C)N3CCN(S(C)(=O)=O)C[C@H]3C)cc2-c2nc(C)nc(N)n2)cc1F | 174
COc1ncc(Nc2ncc([C@@H](C)N3CCN(S(C)(=O)=O)C[C@@H]3C)cc2-c2nc(C)nc(N)n2)cc1F | 69
COc1ncc(Nc2ncc([C@H](C)N3CCN(S(C)(=O)=O)C[C@@H]3C)cc2-c2nc(C)nc(N)n2)cc1F | 128
COc1ncc(Nc2ncc(C(C)(C)N3CCN(S(C)(=O)=O)CC3)cc2-c2nc(C)nc(N)n2)cc1F | 58

The next lines start with the values.

microsomal CLint at 0.5 h, 1 µM [µL/min/mg] | Structure (SMILES)
< 14 | Cc1nc(N)nc(-c2cc(CN3CCN(S(C)(=O)=O)CC3)cnc2Nc2ccc(=O)[nH]c2)n1
24 | Cc1nc(N)nc(-c2cc(CN3CCN(S(C)(=O)=O)CC3)cnc2Nc2ccc(Cl)nc2)n1
22 | Cc1ccc(Nc2ncc(CN3CCN(S(C)(=O)=O)CC3)cc2-c2nc(C)nc(N)n2)cn1
22 | Cc1nc(N)nc(-c2cc(CN3CCN(S(C)(=O)=O)CC3)cnc2Nc2ccc(C(F)(F)F)nc2)n1
14 | COc1ncc(Nc2ncc(CN3CCN(S(C)(=O)=O)CC3)cc2-c2nc(C)nc(N)n2)cn1
30 | COc1ncc(Nc2ncc(CN3CCN(S(C)(=O)=O)CC3)cc2-c2nc(C)nc(N)n2)cc1F
30 | Cc1nc(N)nc(-c2cc(CN3CCN(S(C)(=O)=O)CC3)cnc2Nc2cncc(F)c2)n1
29 | COc1cncc(Nc2ncc(CN3CCN(S(C)(=O)=O)CC3)cc2-c2nc(C)nc(N)n2)c1
